Assay results reported in ChEMBL document CHEMBL4725357, “Elucidating the Structural Requirement of Uridylpeptide Antibiotics for Antibacterial Activity” (J Med Chem, 2020).
In brackets after ≈: the same amount, converted by molar mass.

Columns and labels:
Pseudomonas aeruginosa = assay: Antibacterial activity against Pseudomonas aeruginosa PAO1 incubated for 18 hrs by CLSI based broth microdilution method; format: functional
[1] = Inhibition of Staphylococcus aureus MraY using UDPMurNAc-dansylpentapeptide as substrate incubated for 3 hrs by fluorescence method

Row | SMILES | MIC (Pseudomonas aeruginosa) | IC50 [1]
1 | C[C@@H](O)[C@H](NC(=O)N[C@@H](Cc1c[nH]c2ccccc12)C(=O)O)C(=O)N[C@H](C(=O)N/C=C1\O[C@@H](n2ccc(=O)[nH]c2=O)[C@H](O)[C@@H]1O)[C@H](C)N(C)C(=O)[C@@H](N)Cc1cccc(O)c1 | 32 µg/mL (≈ 37.7 µM) | 1.8 nM
2 | C[C@H](NC(=O)N[C@@H](Cc1c[nH]c2ccccc12)C(=O)O)C(=O)N[C@H](C(=O)N/C=C1\O[C@@H](n2ccc(=O)[nH]c2=O)[C@H](O)[C@@H]1O)[C@H](C)N(C)C(=O)[C@@H](N)Cc1cccc(O)c1 | 64 µg/mL (≈ 78.1 µM) | 1.3 nM
3 | C[C@@H]([C@H](NC(=O)[C@H](Cc1ccccc1)NC(=O)N[C@@H](Cc1c[nH]c2ccccc12)C(=O)O)C(=O)N/C=C1\O[C@@H](n2ccc(=O)[nH]c2=O)[C@H](O)[C@@H]1O)N(C)C(=O)[C@@H](N)Cc1cccc(O)c1 | 16 µg/mL (≈ 17.9 µM) | 0.6 nM
4 | C[C@@H]([C@H](NC(=O)[C@H](CCCNC(=N)N)NC(=O)N[C@@H](Cc1c[nH]c2ccccc12)C(=O)O)C(=O)N/C=C1\O[C@@H](n2ccc(=O)[nH]c2=O)[C@H](O)[C@@H]1O)N(C)C(=O)[C@@H](N)Cc1cccc(O)c1 | > 128 µg/mL | 3.4 nM
5 | C[C@@H]([C@H](NC(=O)[C@@H]1CCCN1C(=O)N[C@@H](Cc1c[nH]c2ccccc12)C(=O)O)C(=O)N/C=C1\O[C@@H](n2ccc(=O)[nH]c2=O)[C@H](O)[C@@H]1O)N(C)C(=O)[C@@H](N)Cc1cccc(O)c1 | > 128 µg/mL | > 500 nM
6 | C[C@@H]([C@H](NC(=O)[C@H](Cc1ccc(O)cc1)NC(=O)N[C@@H](Cc1c[nH]c2ccccc12)C(=O)O)C(=O)N/C=C1\O[C@@H](n2ccc(=O)[nH]c2=O)[C@H](O)[C@@H]1O)N(C)C(=O)[C@@H](N)Cc1cccc(O)c1 | 16 µg/mL (≈ 17.5 µM) | 0.22 nM
7 | C[C@@H]([C@H](NC(=O)[C@H](Cc1c[nH]c2ccccc12)NC(=O)N[C@@H](Cc1c[nH]c2ccccc12)C(=O)O)C(=O)N/C=C1\O[C@@H](n2ccc(=O)[nH]c2=O)[C@H](O)[C@@H]1O)N(C)C(=O)[C@@H](N)Cc1cccc(O)c1 | 32 µg/mL (≈ 34.2 µM) | 0.44 nM
8 | C[C@@H]([C@H](NC(=O)CNC(=O)N[C@@H](Cc1c[nH]c2ccccc12)C(=O)O)C(=O)N/C=C1\O[C@@H](n2ccc(=O)[nH]c2=O)[C@H](O)[C@@H]1O)N(C)C(=O)[C@@H](N)Cc1cccc(O)c1 | > 128 µg/mL | 4.2 nM
9 | CC(C)[C@H](NC(=O)N[C@@H](Cc1c[nH]c2ccccc12)C(=O)O)C(=O)N[C@H](C(=O)N/C=C1\O[C@@H](n2ccc(=O)[nH]c2=O)[C@H](O)[C@@H]1O)[C@H](C)N(C)C(=O)[C@@H](N)Cc1cccc(O)c1 | 16 µg/mL (≈ 18.9 µM) | 1.5 nM
10 | C[C@@H]([C@H](NC(=O)[C@H](CCC(=O)O)NC(=O)N[C@@H](Cc1c[nH]c2ccccc12)C(=O)O)C(=O)N/C=C1\O[C@@H](n2ccc(=O)[nH]c2=O)[C@H](O)[C@@H]1O)N(C)C(=O)[C@@H](N)Cc1cccc(O)c1 | 128 µg/mL (≈ 146 µM) | 3.3 nM
11 | C[C@@H]([C@H](NC(=O)[C@H](CC(=O)O)NC(=O)N[C@@H](Cc1c[nH]c2ccccc12)C(=O)O)C(=O)N/C=C1\O[C@@H](n2ccc(=O)[nH]c2=O)[C@H](O)[C@@H]1O)N(C)C(=O)[C@@H](N)Cc1cccc(O)c1 | > 128 µg/mL | 7.6 nM
12 | CCCCCCCCCCCCCCCC(=O)N[C@@H](C)C(=O)N[C@H](C(=O)N/C=C1\O[C@@H](n2ccc(=O)[nH]c2=O)[C@H](O)[C@@H]1O)[C@H](C)N(C)C(=O)[C@@H](N)Cc1cccc(O)c1 |  | > 1000 nM
13 | CC(C)C[C@H](NC(=O)[C@@H](NC(=O)N[C@H](C(=O)O)C(C)C)[C@@H]1CCNC(=N)N1)C(=O)NCCCN[C@H](C(=O)O)[C@H](O[C@@H]1O[C@H](CN)[C@@H](O)[C@H]1O)[C@H]1O[C@@H](n2ccc(=O)[nH]c2=O)[C@H](O)[C@@H]1O [MURAMYCIN D2] |  | 2.8 nM
14 | C[C@@H]([C@H](NC(=O)[C@H](CCC(N)=O)NC(=O)N[C@@H](Cc1c[nH]c2ccccc12)C(=O)O)C(=O)N/C=C1\O[C@@H](n2ccc(=O)[nH]c2=O)[C@H](O)[C@@H]1O)N(C)C(=O)[C@@H](N)Cc1cccc(O)c1 | 128 µg/mL (≈ 146 µM) | 1.3 nM
15 | CCCCCCCCCCCCCCC[C@H](NC(=O)[C@@H](NC(=O)N[C@H](C(=O)O)C(C)C)[C@@H]1CCNC(=N)N1)C(=O)NCCCN[C@H](C(=O)O)[C@H](O[C@@H]1O[C@H](CN)[C@@H](O)[C@H]1O)[C@H]1O[C@@H](n2ccc(=O)[nH]c2=O)[C@H](O)[C@@H]1O |  | 1.1 nM
16 | CC(C)C[C@H](NC(=O)N[C@@H](Cc1c[nH]c2ccccc12)C(=O)O)C(=O)N[C@H](C(=O)N/C=C1\O[C@@H](n2ccc(=O)[nH]c2=O)[C@H](O)[C@@H]1O)[C@H](C)N(C)C(=O)[C@@H](N)Cc1cccc(O)c1 | 32 µg/mL (≈ 37.1 µM) | 4 nM
17 | CC(=O)N[C@H](C(=O)N/C=C1\O[C@@H](n2ccc(=O)[nH]c2=O)[C@H](O)[C@@H]1O)[C@H](C)N(C)C(=O)[C@@H](N)Cc1cccc(O)c1 |  | > 1000 nM
18 | C[C@@H]([C@H](NC(=O)[C@H](Cc1cnc[nH]1)NC(=O)N[C@@H](Cc1c[nH]c2ccccc12)C(=O)O)C(=O)N/C=C1\O[C@@H](n2ccc(=O)[nH]c2=O)[C@H](O)[C@@H]1O)N(C)C(=O)[C@@H](N)Cc1cccc(O)c1 | > 128 µg/mL | 2.8 nM
19 | CC[C@H](C)[C@H](NC(=O)N[C@@H](Cc1c[nH]c2ccccc12)C(=O)O)C(=O)N[C@H](C(=O)N/C=C1\O[C@@H](n2ccc(=O)[nH]c2=O)[C@H](O)[C@@H]1O)[C@H](C)N(C)C(=O)[C@@H](N)Cc1cccc(O)c1 | 16 µg/mL (≈ 18.6 µM) | 1.4 nM
20 | CCCCCCCCCCCCCCC[C@H](N)C(=O)NCCCN[C@H](C(=O)O)[C@H](O[C@@H]1O[C@H](CN)[C@@H](O)[C@H]1O)[C@H]1O[C@@H](n2ccc(=O)[nH]c2=O)[C@H](O)[C@@H]1O |  | 2.7 nM
21 | C[C@@H]([C@H](NC(=O)[C@H](CO)NC(=O)N[C@@H](Cc1c[nH]c2ccccc12)C(=O)O)C(=O)N/C=C1\O[C@@H](n2ccc(=O)[nH]c2=O)[C@H](O)[C@@H]1O)N(C)C(=O)[C@@H](N)Cc1cccc(O)c1 | > 128 µg/mL | 1.8 nM
22 | CSCC[C@H](NC(=O)N[C@@H](Cc1c[nH]c2ccccc12)C(=O)O)C(=O)N[C@H](C(=O)N/C=C1\O[C@@H](n2ccc(=O)[nH]c2=O)[C@H](O)[C@@H]1O)[C@H](C)N(C)C(=O)[C@@H](N)Cc1cccc(O)c1 | 32 µg/mL (≈ 36.4 µM) | 1 nM
23 | C[C@@H]([C@H](NC(=O)[C@H](CCCCN)NC(=O)N[C@@H](Cc1c[nH]c2ccccc12)C(=O)O)C(=O)N/C=C1\O[C@@H](n2ccc(=O)[nH]c2=O)[C@H](O)[C@@H]1O)N(C)C(=O)[C@@H](N)Cc1cccc(O)c1 | > 128 µg/mL | 1.8 nM
24 | C[C@@H]([C@H](NC(=O)[C@H](CS)NC(=O)N[C@@H](Cc1c[nH]c2ccccc12)C(=O)O)C(=O)N/C=C1\O[C@@H](n2ccc(=O)[nH]c2=O)[C@H](O)[C@@H]1O)N(C)C(=O)[C@@H](N)Cc1cccc(O)c1 | 128 µg/mL (≈ 150 µM) | 1.6 nM
25 | C[C@@H]([C@H](NC(=O)[C@H](CC(N)=O)NC(=O)N[C@@H](Cc1c[nH]c2ccccc12)C(=O)O)C(=O)N/C=C1\O[C@@H](n2ccc(=O)[nH]c2=O)[C@H](O)[C@@H]1O)N(C)C(=O)[C@@H](N)Cc1cccc(O)c1 | > 128 µg/mL | 2.1 nM
26 | CC(=O)N[C@@H](C)C(=O)N[C@H](C(=O)N/C=C1\O[C@@H](n2ccc(=O)[nH]c2=O)[C@H](O)[C@@H]1O)[C@H](C)N(C)C(=O)[C@@H](N)Cc1cccc(O)c1 |  | > 1000 nM
